# pEC50: −log10 of the molar value. Read-outs that look alike come from different tables or passages of the source.
# Columns and labels:
# HBV = experiment: Inhibition of HBV in HepG2.117 cells (anti-HBV activity, qPCR); format: cell-based; conditions: HBV viral DNA copy numbers in supernatant by qPCR
# [1] = system: VSV-G pseudotyped HIV NL4-3; experiment: microbe, parasite or virus in culture; format: cell-based; conditions: for EC50: Human immunodeficiency virus 1, NL43, 72 h, read-out: HIV EC50 (uM)
# [2] = Hepatitis B virus, HepG2.117, 96 h, Table 4 phosphoramidate prodrugs
# [3] = Hepatitis B virus, HepG2.117, 96 h, Table 2 nucleosides
Structure (SMILES),"pEC50 (HBV; 96 h, Table 4 phosphoramidate prodrugs)",pEC50 ([1]; read-out: HIV EC50),pEC50 (HBV; [2]),EC50 [1] [µM],pEC50 (HBV; [3])
"C=C1[C@@H](n2cnc3c(=O)[nH]c(N)nc32)C[C@H](O)[C@@]1(C#N)COP(=O)(N[C@@H](C)C(=O)OC(C)C)Oc1ccccc1 (single isomer, unassigned) [Example 43, Isopropyl ((R*)-(((1S,3S,5S)-3-(2-amino-6-oxo-1,6-dihydro-9H-purin-9-yl)-1-cyano-5-hydroxy-2-methylenecyclopentyl)methoxy)(phenoxy)phosphoryl)-L-alaninate]",6.23,5.37,,,
"C=C1[C@@H](n2cnc3c(=O)[nH]c(N)nc32)C[C@H](O)[C@@]1(C#N)COP(=O)(N[C@@H](C)C(=O)OC(C)C)Oc1ccccc1 (single isomer, unassigned) [Example 44, Isopropyl ((S*)-(((1S,3S,5S)-3-(2-amino-6-oxo-1,6-dihydro-9H-purin-9-yl)-1-cyano-5-hydroxy-2-methylenecyclopentyl)methoxy)(phenoxy)phosphoryl)-L-alaninate]",,,6.34,2.29,
"C=C1[C@@H](n2ccc3c(N)ncnc32)C[C@H](O)[C@@]1(F)CO [Example 1, (1S,2S,4S)-4-(4-Amino-7H-pyrrolo[2,3-d]pyrimidin-7-yl)-2-fluoro-2-(hydroxymethyl)-3-methylenecyclopentan-1-ol]",,,,,7.96
"C=C1[C@H](CO)[C@@H](O)C[C@@H]1n1ccc2c(=O)[nH]c(N)nc21 [Example 2, 2-Amino-7-((1S,3R,4S)-4-hydroxy-3-(hydroxymethyl)-2-methylenecyclopentyl)-3,7-dihydro-4H-pyrrolo[2,3-d]pyrimidin-4-one]",,,,> 33.3,< 5.00
"C=C1[C@@H](n2cc(C)c(=O)[nH]c2=O)C[C@H](O)[C@@]1(F)CO [Example 3, 1-((1S,3S,4S)-3-Fluoro-4-hydroxy-3-(hydroxymethyl)-2-methylenecyclopentyl)-5-methylpyrimidine-2,4(1H,3H)-dione]",,,,> 33.3,< 5.00
"C=C1[C@@H](n2cnc3c(=O)[nH]c(N)nc32)C[C@H](O)[C@@]1(F)CO [Example 4, 2-Amino-9-((1S,3S,4S)-3-fluoro-4-hydroxy-3-(hydroxymethyl)-2-methylenecyclopentyl)-1,9-dihydro-6H-purin-6-one]",,,,0.0356,> 9.05
"C=C1[C@H](n2cnc3c(=O)[nH]c(N)nc32)C[C@H](O)[C@]1(F)CO [Example 5, 2-Amino-9-((1R,3R,4S)-3-fluoro-4-hydroxy-3-(hydroxymethyl)-2-methylenecyclopentyl)-1,9-dihydro-6H-purin-6-one]",,,,> 33.3,5.61
"C=C1[C@@H](n2cnc3c(N)ncnc32)C[C@H](O)[C@@]1(F)CO [Example 6, (1S,2S,4S)-4-(6-Amino-9H-purin-9-yl)-2-fluoro-2-(hydroxymethyl)-3-methylenecyclopentan-1-ol]",,,,2.68,7.21
"C=C1[C@H](n2cnc3c(N)ncnc32)C[C@H](O)[C@]1(F)CO [Example 7, (1S,2R,4R)-4-(6-Amino-9H-purin-9-yl)-2-fluoro-2-(hydroxymethyl)-3-methylenecyclopentan-1-ol]",,,,> 33.3,< 5.00
"C=C1[C@H](CO)[C@@H](O)C[C@@H]1n1ccc2c(N)ncnc21 [Example 9, (1S,2R,4S)-4-(4-Amino-7H-pyrrolo[2,3-d]pyrimidin-7-yl)-2-(hydroxymethyl)-3-methylenecyclopentan-1-ol]",,,,> 33.3,5.13
"C=C1[C@@H](n2cnc3c(=O)[nH]c(N)nc32)C[C@H](O)[C@]1(CO)CF [Example 10, 2-Amino-9-((1S,3S,4S)-3-(fluoromethyl)-4-hydroxy-3-(hydroxymethyl)-2-methylenecyclopentyl)-1,9-dihydro-6H-purin-6-one]",,,,0.662,6.78
"C=C1[C@@H](n2ccc(N)nc2=O)C[C@H](O)[C@]1(CO)CF [Example 11, 4-Amino-1-((1S,3S,4S)-3-(fluoromethyl)-4-hydroxy-3-(hydroxymethyl)-2-methylenecyclopentyl)pyrimidin-2(1H)-one]",,,,0.911,5.04
"C=C1[C@@H](n2cc(C)c(=O)[nH]c2=O)C[C@H](O)[C@]1(CO)CF [Example 12, 1-((1S,3S,4S)-3-(fluoromethyl)-4-hydroxy-3-(hydroxymethyl)-2-methylenecyclopentyl)-5-methylpyrimidine-2,4(1H,3H)-dione]",,,,> 33.3,< 5.00
"C=C1[C@@H](n2cnc3c(N)ncnc32)C[C@H](O)[C@]1(CO)CF [Example 13, (1S,2S,4S)-4-(6-Amino-9H-purin-9-yl)-2-(fluoromethyl)-2-(hydroxymethyl)-3-methylenecyclopentan-1-ol]",,,,5.02,< 5.26
"C=C1[C@@H](n2cnc3c(N)ncnc32)C[C@H](O)[C@]1(CO)CCl [Example 14, (1S,2S,4S)-4-(6-Amino-9H-purin-9-yl)-2-(chloromethyl)-2-(hydroxymethyl)-3-methylenecyclopentan-1-ol]",,,,1.08,5.46
"C=C1[C@@H](n2cc(C)c(=O)[nH]c2=O)C[C@H](O)[C@@]1(C#N)CO [Example 15, (1S,3S,5S)-5-Hydroxy-1-(hydroxymethyl)-3-(5-methyl-2,4-dioxo-3,4-dihydropyrimidin-1(2H)-yl)-2-methylenecyclopentane-1-carbonitrile]",,,,> 33.3,< 5.00
"C=C1[C@@H](n2ccc(N)nc2=O)C[C@H](O)[C@@]1(C#N)CO [Example 16, (1S,3S,5S)-3-(4-Amino-2-oxopyrimidin-1(2H)-yl)-5-hydroxy-1-(hydroxymethyl)-2-methylenecyclopentane-1-carbonitrile]",,,,5.83,< 5.00
"C=C1[C@@H](n2cnc3c(N)ncnc32)C[C@H](O)[C@@]1(C#N)CO [Example 17, (1S,3S,5S)-3-(6-Amino-9H-purin-9-yl)-5-hydroxy-1-(hydroxymethyl)-2-methylenecyclopentane-1-carbonitrile]",,,,2.21,< 5.00
"C=C1[C@@H](n2cnc3c(=O)[nH]c(N)nc32)C[C@H](O)[C@@]1(C#N)CO [Example 18, (1S,3S,5S)-3-(2-Amino-6-oxo-1,6-dihydro-9H-purin-9-yl)-5-hydroxy-1-(hydroxymethyl)-2-methylenecyclopentane-1-carbonitrile]",,,,0.12,7.33
"C#C[C@]1(CO)C(=C)[C@@H](n2cnc3c(N)ncnc32)C[C@@H]1O [Example 19, (1S,2R,4S)-4-(6-Amino-9H-purin-9-yl)-2-ethynyl-2-(hydroxymethyl)-3-methylenecyclopentan-1-ol]",,,,0.0665,< 5.00
"C=C[C@]1(CO)C(=C)[C@@H](n2cnc3c(N)ncnc32)C[C@@H]1O [Example 20, (1S,2R,4S)-4-(6-Amino-9H-purin-9-yl)-2-(hydroxymethyl)-3-methylene-2-vinylcyclopentan-1-ol]",,,,0.547,< 5.00
"C#C[C@]1(COP(=O)(N[C@@H](C)C(=O)OC(C)C)Oc2ccccc2)C(=C)[C@@H](n2cnc3c(N)ncnc32)C[C@@H]1O (stereo partly drawn) [Example 38, Isopropyl ((((1R,3S,5S)-3-(6-amino-9H-purin-9-yl)-1-ethynyl-5-hydroxy-2-methylenecyclopentyl)methoxy)(phenoxy)phosphoryl)-L-alaninate]",,,5.62,0.0506,
"C=C1[C@@H](n2cnc3c(N)ncnc32)C[C@H](O)[C@@]1(F)COP(=O)(N[C@@H](C)C(=O)OCC(C)(C)C)Oc1ccccc1 (stereo partly drawn) [Example 39, Neopentyl ((((1S,3S,5S)-3-(6-amino-9H-purin-9-yl)-1-fluoro-5-hydroxy-2-methylenecyclopentyl)methoxy)(phenoxy)phosphoryl)-L-alaninate]",,,9.52,0.0139,
"C=C1[C@@H](n2cnc3c(N)ncnc32)C[C@H](O)[C@@]1(CF)COP(=O)(N[C@@H](C)C(=O)OC(C)C)Oc1ccccc1 (stereo partly drawn) [Example 40, Isopropyl ((((1S,3S,5S)-3-(6-amino-9H-purin-9-yl)-1-(fluoromethyl)-5-hydroxy-2-methylenecyclopentyl)methoxy)(phenoxy)phosphoryl)-L-alaninate]",,,7.86,0.144,
"C=C1[C@@H](n2cc(C)c(=O)[nH]c2=O)C[C@H](O)[C@@]1(C#N)COP(=O)(N[C@@H](C)C(=O)OC(C)C)Oc1ccccc1 (stereo partly drawn) [Example 41, Isopropyl ((((1S,3S,5S)-1-cyano-5-hydroxy-3-(5-methyl-2.4-dioxo-3.4-dihydropyrimidin-1(2H)-yl)-2-methylenecyclopentyl)methoxy)(phenoxy)phosphoryl)-L-alaninate]",,,< 5.00,10.2,
"C=C1[C@@H](n2ccc(N)nc2=O)C[C@H](O)[C@@]1(C#N)COP(=O)(N[C@@H](C)C(=O)OC(C)C)Oc1ccccc1 (stereo partly drawn) [Example 42, Isopropyl ((((1S,3S,5S)-3-(4-amino-2-oxopyrimidin-1(2H)-yl)-1-cyano-5-hydroxy-2-methylenecyclopentyl)methoxy)(phenoxy)phosphoryl)-L-alaninate]",,,< 5.00,10.4,

# Source: patent US20220033406A1, “C[…] AS ANTI-VIRALS” (priority 2018, published 2022)
